row,SMILES,melting point
1,Cc1cn(C(C)(C)C(=O)N(C)C)nc1-c1ccc(Cl)c(Cl)c1,142 °C
2,O=C(O)[C@H](Cc1ccc(C(F)(F)F)cc1)[C@@H](O)c1cccc(F)c1 (racemic),128 to 129 °C
3,Cn1cc(C2=C(c3c4n(c5ccccc35)C[C@@H]3CN(C=O)C[C@@H]3C4)C(=O)NC2=O)c2ccccc21 (relative stereo),316 to 318 °C
4,Cc1cc(-n2ccnc2)cc2ccc(=O)[nH]c12,259 to 262 °C
5,CC(C)NC(=O)c1nc(-c2ccccc2)c(-c2ccc(=O)n(C)n2)s1,154 °C
6,CC(Cl)C(=O)N1c2ccccc2C(=O)Nc2cccnc21 (stereo not drawn),215 to 218 °C
7,CCCOc1ccc(S(=O)(=O)N2CCN(C)CC2)cc1-c1nc2cc(Cl)c([N+](=O)[O-])cc2c(=O)[nH]1,225 to 228 °C
8,C1=C(c2ccccc2)CCN(CCCCc2cnc3ccccc3c2)C1,92.8 to 93.9 °C
9,OCc1cn(Cc2ccc(OCc3ccccc3)cc2)nc1-c1ccccc1,88 to 89 °C
10,Cn1cc(-c2cc3nccnc3[nH]2)c2cc(O)ccc21,289 to 290 °C
11,O=[N+]([O-])c1ccc(Oc2c(Cl)cc(C(F)(F)F)cc2Cl)cc1CO,143 °C
12,CC(C)(Oc1ccc(OCc2ccc3nn(-c4ccc(C(F)(F)F)cc4)cc3c2)cc1)C(=O)O,203 to 205 °C
13,O=C(O)c1cc(-n2c(-c3ccc(F)cc3)cc3c2CCCC3)ccc1O,239 to 240 °C
14,CCNC(C)c1nc(CSCCNC(=C[N+](=O)[O-])NC)cs1 (stereo not drawn),114 to 116 °C
15,C=CCNC(=S)N1CCc2[nH]cnc2C1,172 °C
16,Cc1c(C)c2c(c(C)c1NC(=O)OC(C)(C)C)C(O)(c1ccc(C(C)C)cc1)C(C)(C)O2 (stereo not drawn),155 to 157 °C
17,CCOC(=O)c1sc(Oc2ccc(-n3cccc3)cc2)c2c1CCc1cnn(C)c1-2,139 to 140 °C
18,COc1cccc(P(=O)(c2ccc(C)cc2)c2ccc(C)cc2)c1,96 to 98 °C
19,Clc1nc(-n2ccnc2)c2ccccc2c1-c1ccccc1,165 to 168 °C
20,O=C(O)c1cccc(C(=O)C=Cc2cccc(C=Cc3ccc4ccccc4n3)c2)c1O,237 to 240 °C
21,CCCn1ncnc1COc1nn2c(-c3ccccc3F)nncc2c1C(C)(C)C,93 °C
22,CCOC(=O)c1cn(CCCl)c2cc(-n3cccc3)c(F)cc2c1=O,254 to 256 °C
23,NC(=O)CNC(=O)c1ccc(-c2cccc3cc(Cc4cccc(C(F)(F)F)c4)sc23)nc1,191 to 192 °C
24,Cc1cnc(C#N)c(C)c1[N+](=O)[O-],66 to 71 °C
25,COc1cc(C(=O)NS(=O)(=O)c2ccccc2C)ccc1Cn1ncc2ccc(NC(=O)CC3CCCC3)cc21,184 to 185 °C

row,SMILES,melting point
1,CC(C)(C)CNc1nc(Cl)cc(NC(C)(C)C)n1,115 to 119 °C
2,COc1cccc(CC(=S)SCC(=O)O)c1,93 to 95 °C
3,CCOC(=O)COc1cccc2c1OCC(Br)C2=O (stereo not drawn),92 to 93 °C
4,NS(=O)(=O)Cc1ccccc1-c1nnc(S)o1,224 to 227 °C
5,NC(=O)CNC(=O)c1cccc(-c2ccc(F)c3cc(Cc4cccc(C(F)(F)F)c4)sc23)c1,157 to 158 °C
6,CCOc1ncc(C(C)=O)cc1-c1nc2c(CC)n(CC3CC3)nc2c(=O)[nH]1,200 to 201 °C
7,CCOC(=O)N1CCC(c2ccc(COc3ccc(S(C)(=O)=O)cc3)nc2)CC1,119 to 121 °C
8,O=c1[nH]c(-c2ccc(C(F)(F)F)cc2C(F)(F)F)nn1-c1cc(Cl)ccc1O,270 to 275 °C
9,C1COCCOCCNCCOCCOCCOCCN1,0 °C
10,Cn1ncc(C#N)c1-c1ccc([N+](=O)[O-])o1,150 to 152 °C
11,COCC1(C)Oc2ccccc2C(n2ccccc2=O)C1O (stereo not drawn),244 to 246 °C
12,O=C(NC(Cl)C(Cl)(Cl)Cl)c1ccccc1O (stereo not drawn),113 to 114 °C
13,Clc1c2ccccc2nc2c1sc1ccccc12,158 to 159 °C
14,O=C(O)c1ccc(OC(=O)c2cccc(C34CC5CC(CC(C5)C3)C4)c2)cc1,237 to 239 °C
15,CCN(CC)C(=O)c1nc(C=Cc2ccc(OC)cc2)no1,69 to 70 °C
16,CC(C)(CCCCCCCc1c(-c2ccccc2)nc(-c2ccccc2)n1-c1ccccc1)C(=O)O,119 to 120 °C
17,CCCCOc1ccc(S(=O)(=O)C2(C(=O)OCC)CCN(Cc3ccc(Cl)c(Cl)c3)CC2)cc1,86 °C
18,COc1cc(N)c(Cl)cc1C(=O)NCC1CCN(CCCCCSc2ccccc2)CC1,143 to 144 °C
19,O=C(Nc1ccc(S(=O)(=O)c2ccccc2)cc1)C1(O)CCCC1,214 to 216 °C
20,CC(C)(Cn1cnc2c(N)nc3c(c21)CCCC3)OCCS(C)(=O)=O,219 to 223 °C
21,CCC(=O)N1CCC(NC(=O)Nc2ccc(C(=O)O)cc2)CC1,201 to 204 °C
22,CCCS(=O)(=O)NCC(O)(Cn1cncn1)c1ccc(Cl)cc1Cl (stereo not drawn),128 to 129 °C
23,COc1cccc(OC(=O)NC2C(=O)N(CCC(C)C)c3cc(Cl)c(Cl)cc3N(c3ccccc3)C2=O)c1 (stereo not drawn),139 to 140 °C
24,COc1cc2c(Nc3ccc(C)c(OC(C)=O)c3)ncnc2cc1OCc1cccnc1,113 to 115 °C
25,N#Cc1ccc(C(O)Cc2ccc(C#N)cc2[N+](=O)[O-])cc1 (stereo not drawn),147 to 153 °C

row,SMILES,melting point
1,COc1ccc(C(=O)Nc2nc3ccc(N(C)C)cc3c(NCc3ccccc3)c2C#N)cc1,185 °C
2,Cc1cc(-c2noc(N(C)C)n2)ccc1-c1ccc(C(=O)N2CCCc3cc4c(cc32)C2(CCN(C)CC2)CO4)cc1,118 to 120 °C
3,Cc1cccc(NC(=O)N(C)Cc2cccc3c2C(=O)N(C2CCC(=O)NC2=O)C3=O)c1 (stereo not drawn),212 to 215 °C
4,COc1cc(C(=O)C=Cc2ccncc2)ccc1OCC(=O)Nc1nc2ccccc2s1,206 to 207 °C
5,COC(=O)c1nc2ccc(Cl)cc2c(O)c1C(=O)OC,228 to 230 °C
6,CCOc1nc2c(cnn2CC)nc1C(=O)Cl,86 to 87 °C
7,NC(=O)C(OCc1ccc(-c2ccc(Cl)cc2)cc1)(C(F)(F)F)C(F)(F)F,123 to 124 °C
8,CCCN(C1CC(C)(C)Oc2ccc(O)cc21)S(=O)(=O)CC (stereo not drawn),173 to 175 °C
9,O=C(O)C1CCc2c(OCc3ccccc3)cccc21 (stereo not drawn),133 °C
10,CC(C)(C)NC(=O)[C@@H]1[C@H](O)CCN1C(=O)[C@@H](O)[C@H](Cc1ccccc1)NC(=O)[C@H](CC(N)=O)NC(=O)OCc1ccccc1,109 to 112 °C
11,CCCCn1c(=O)[nH]c2c(Cl)cc(OC)c(OC)c2c1=N,155 to 157 °C
12,COc1ccc(-c2cc3ccc(Cl)cc3[nH]c2=O)cc1,256 to 257 °C
13,CC(C)(C)NC(=O)[C@@H]1CCCN1C(=O)[C@@H](O)[C@H](Cc1ccccc1)NC(=O)[C@H](CC(N)=O)NC(=O)COc1cccc(N)c1,108 to 114 °C
14,c1ccc2c(c1)CC(CN1CCC(c3c[nH]c4ccccc34)CC1)C2,146 to 147 °C
15,CN(C(=O)Nc1ccc(Cl)cc1)c1nnc(Br)s1,250 °C
16,CCC(=O)Nc1ccc(C)c(O)c1C,140 °C
17,CC(=O)C1CCC2C3CCC4CC(O)C(N5CCSC(C)(C)C5)CC4(C)C3C(=O)CC12C (stereo not drawn),202 to 203 °C
18,CCCn1c(=O)c2[nH]c(C3CCCS3)nc2n(CCC)c1=O (stereo not drawn),224 to 226 °C
19,Cc1cccc2c(Cl)nc(Cl)nc12,180 to 230 °C
20,Cc1ccccc1C(=O)C=CC(=O)O,82 to 83 °C
21,ON=c1cc(-c2cc3sccc3cn2)oc2ccc(OCCc3ccc(F)cc3)cc12,228 to 234 °C
22,CC1(C)COC(=O)N1c1nc(-c2ccc(Cl)c(F)c2)cs1,140 to 142 °C
23,Cc1oc(-c2ccco2)nc1COc1ccc(COc2nn(Cc3ccccc3)cc2CO)cc1OCc1ccccc1,145 to 146 °C
24,CCCCCCCCCCCCCCCC1CCCC(c2ccc(N)cc2)(c2ccc(N)cc2)C1 (stereo not drawn),107 °C
25,CCC(OC)(c1ccc(OCc2ccc3ccccc3n2)c(OC)c1)c1nccs1 (stereo not drawn),100 to 102 °C

row,SMILES,melting point
1,CC1(C)CCC(C)(C)c2cc(-c3cc(-c4ccc(C(=O)O)cc4)ccc3OCCCCCCCCCO)ccc21,147 to 150 °C
2,CC(C)(C)C(=O)c1c[nH]c2ncc(C3CC3)nc12,266 to 268 °C
3,O=c1[nH]cc(-c2ccncc2)cc1[N+](=O)[O-],258 to 260 °C
4,O=C(O)c1ccc(COCc2csc3nc(C(=O)NCc4cccc(Br)c4)[nH]c(=O)c23)cc1,231 to 233 °C
5,Cn1cc2c(C3C(=O)Nc4ccc(Br)cc43)nc(NCCc3cccnc3)nc2n1 (stereo not drawn),314 to 317 °C
6,CCCCNCCCOc1ccc(-c2ccc(C(=O)O)cc2)cc1-c1ccc2c(c1)C(C)(C)CCC2(C)C,238 °C
7,CCSc1c(O[C@@H]2CCC[C@H](N)C2)ccc2[nH]ncc12 (relative stereo),110 °C
8,Cn1cncc1C(O)(c1ccc(C(=O)O)cc1)c1ccc2c(c1)c(-c1cccc(Cl)c1)cc(=O)n2C (stereo not drawn),> 260 °C
9,O=C(CC1CCOC1=O)c1ccccc1 (stereo not drawn),77 to 79 °C
10,O=C(N[C@@H]1CCNC[C@H]1O)c1ccccc1 (relative stereo),210 °C
11,O=C(Nc1ccccc1I)c1ccccc1,147 to 148 °C
12,COc1cccc(NC(=O)N(C)Cc2cccc3c2CN(C2CCC(=O)NC2=O)C3=O)c1 (stereo not drawn),296 to 298 °C
13,CCOC(=O)c1snc(OCC)c1Br,40 to 43 °C
14,Nc1ncc(C(=O)CBr)cc1Cl,134 °C
15,CCOC(=O)c1cn(C)c2ccsc2c1=O,122 to 128 °C
16,COc1cc(N=C=S)nc(OC)c1,85 to 86 °C
17,O=C1N=c2cc(O)c(O)cc2=NC1=O,> 350 °C
18,COc1ccc2c(c1)CCc1cc(Nc3ccccc3N)ccc1C2=O,200 °C
19,CN1CCN(Cc2ccc(NC(=O)C#Cc3ccc(-c4ccc(Cl)cc4)cc3)cc2)CC1,182 to 185 °C
20,CC1(C)Cc2cc(Br)cc(O)c2O1,70 °C
21,CCCCCCCCCCCCCCSc1ccc(Cl)c(N)c1,60.5 to 61.5 °C
22,CCOC(=O)C(CC#Cc1ccccc1)(NC(C)=O)C(=O)OCC,94 to 96.5 °C
23,C[C@H](CI)[C@H]1CC[C@H]2[C@@H](O[Si](C)(C)C(C)(C)C)CCC[C@]12C,40 to 41 °C

# From a melting point compilation (Tetko et al.; mined from patent text by program, amines drawn as free bases though some values may be those of a salt)
